Laboratory results taken from BindingDB's records for doi:10.1021/acs.jnatprod.3c01041 (National Cancer Institute, 2024).

Tests used:
Paired box protein Pax-3 [1] = target: T1, Paired box protein Pax-3 (Homo sapiens, UniProt P23760); assay: Inhibition of PAX3-FOXO1 (unknown origin) fusion protein expressed human Rh4 cells cotransfected with ALK-Luc incubated for 24 hrs by Steady-Glo luciferase assay
Paired box protein Pax-3 [2] = target: T1, Paired box protein Pax-3; assay: Inhibition of PAX3-FOXO1 (unknown origin) fusion protein expressed human Rh4 cells cotransfected with CMV-Luc incubated for 24 hrs by Steady-Glo luciferase assay

T1 sequence (P23760 whole entry, the tested form may be a part): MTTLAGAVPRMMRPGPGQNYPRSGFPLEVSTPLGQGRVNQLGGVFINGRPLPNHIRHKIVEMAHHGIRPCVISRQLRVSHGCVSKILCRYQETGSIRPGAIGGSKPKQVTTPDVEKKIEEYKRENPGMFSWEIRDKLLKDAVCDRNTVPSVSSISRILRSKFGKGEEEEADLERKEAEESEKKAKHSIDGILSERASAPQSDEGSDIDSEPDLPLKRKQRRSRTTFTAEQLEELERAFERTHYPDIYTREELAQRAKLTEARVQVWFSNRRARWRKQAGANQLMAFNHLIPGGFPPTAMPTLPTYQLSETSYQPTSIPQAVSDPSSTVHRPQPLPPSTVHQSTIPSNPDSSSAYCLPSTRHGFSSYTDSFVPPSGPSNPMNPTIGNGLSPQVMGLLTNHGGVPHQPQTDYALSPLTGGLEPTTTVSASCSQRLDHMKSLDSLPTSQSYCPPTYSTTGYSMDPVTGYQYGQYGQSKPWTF

IC50 (Paired box protein Pax-3 [1]) [µM] | IC50 (Paired box protein Pax-3 [2]) [µM] | Compound
5.4 | 9.4 | COC1=C(C)C(=O)c2c(cn(C)c(=O)c2NCCS(=O)(=O)Oc2c(C)c(OC)c(O)c3c[n+](C)ccc23)C1=O
5.7 | 9.8 | COC1=C(C)C(=O)c2c(cn(C)c(=O)c2NCCS(=O)(=O)Oc2c(C)c(OC)c(O)c3c[n+](C)c(C(=O)O)cc23)C1=O
6.4 | 11.8 | COC(=O)c1cc2c(OS(=O)(=O)CCNc3c4c(cn(C)c3=O)C(=O)C(OC)=C(C)C4=O)c(C)c(OC)c(O)c2c[n+]1C
